In one experiment the test system is human neutrophils. The experiment can be described thus: Direct activation of Ca2+ flux in human neutrophils. The format is cell-based. The note with it: Neutrophil, read-out: Human Neutrophils Activation (EC50, μM).
Experiment [1] concerns the target T1, FPR1 (Homo sapiens, UniProt P21462).
T1 sequence (P21462 1-350): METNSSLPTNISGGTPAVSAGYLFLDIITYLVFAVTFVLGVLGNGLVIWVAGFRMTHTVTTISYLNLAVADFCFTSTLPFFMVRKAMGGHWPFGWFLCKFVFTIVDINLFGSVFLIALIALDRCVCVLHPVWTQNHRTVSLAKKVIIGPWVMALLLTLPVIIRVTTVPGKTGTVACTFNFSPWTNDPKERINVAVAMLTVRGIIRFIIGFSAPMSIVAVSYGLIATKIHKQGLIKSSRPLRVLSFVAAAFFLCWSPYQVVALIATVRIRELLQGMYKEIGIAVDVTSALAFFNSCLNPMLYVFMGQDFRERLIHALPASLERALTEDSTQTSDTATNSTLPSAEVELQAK
In words: Direct activation of Ca2+ flux in FPR1 transfected HL-60 cells. The format is cell-based. (Calcium assays in cells follow changes in intracellular calcium, usually with a dye or a luminescent sensor.)

Experiment [2] concerns FPR1. The note with it: high concentrations; cited from earlier work.
Another experiment has as its system human monocytes. The note with it: read-out: IC50, inhibition of fMLF-induced Ca2+ flux in human monocytes; cited from earlier work.
For experiment [3], the system named is FPR1. The note with it: read-out: IC50, blocking of fMLF binding to FPR1; cited from earlier work.
In experiment [4] the target is T1, FPR1. Conditions: cited from earlier work.
Experiment [5] deals with fMLF-stimulated neutrophils. Conditions: result in words; cited from earlier work.

As usually defined, the EC50 is the concentration needed to bring the measured effect to its halfway point. By IC50 is commonly meant the point on the concentration scale where inhibition reaches its midpoint.

SMILES strings stand for the structures.

As for `C[C@H](CCC(=O)O)[C@H]1CC[C@H]2[C@@H]3[C@H](O)C[C@@H]4C[C@H](O)CC[C@]4(C)[C@H]3CC[C@]12C` [Chenodeoxycholic acid (CDCA), Chenodeoxycholic acid], the EC50 with human neutrophils came out at 49.5 ± 5.1 µM; on FPR1 [1], 40.3 ± 4.5 µM. In addition, in the experiment on FPR1 [2], the “Concentrations that antagonize FPR1 and inhibit 3H-fMLF binding” value was no less than 100 µM. Further, in the experiment on human monocytes, the IC50 was 40 µM.
As for `COc1ccc(C[C@H]2COC(=O)[C@@H]2Cc2ccc(O)c(O)c2)cc1OC` [Lignan PP-6, (2R, 3R)-2-(3′,4′-dihydroxybenzyl)-3-(3″,4″-dimethoxybenzyl)butyrolactone], in the experiment on FPR1 [3], the IC50 was roughly 1.5 µM.
As for `CC(=O)OC1COC(OC2C(O)C(C)OC(OC3C(OC4CCC5(C)C(CCC6(C)C5CC=C5C7CC(C)(C)CCC7(C(=O)O)CCC56C)C4(C)CO)OCC(O)C3O)C2O)C(O)C1OC(C)=O` [SMG-1, hederagenin 3-O-(3,4-O-di-acetyl-α-L-arabinopyranoside)-(1→3)-α-l-rhamnopyranosyl-(1→2)-α-l-arabinopyranoside], the “Binding of fluorescent FPR1 ligand in human neutrophils” value at FPR1 [4] was “blocked binding”.
Regarding `C=C(C)[C@@H]1CC[C@]2(C(=O)O)CC[C@]3(C)[C@H](CC[C@@H]4[C@@]5(C)CC[C@H](O)C(C)(C)[C@@H]5CC[C@]43C)[C@@H]12` [betulinic acid], the “Effect on fMLF-induced release of HNE” value in experiment [5] is “did not affect”.
